In US20180147223A1 (priority 2016, published 2018):
Where “and” joins values, the source holds several entries; their conditions need not be identical. Identical values can stand only once.

Key:
[1] = target: BoNT/A (Clostridium botulinum, UniProt P0DPI0); format: cell-based, C. botulinum
[2] = target: LC of BoNT/A (Clostridium botulinum, UniProt P0DPI0); test: biochemical; format: biochemical, C. botulinum
[3] = target: BoNT/A LC (Clostridium botulinum, UniProt P0DPI0); test: biochemical; format: biochemical, C. botulinum; conditions: for inhibition at 100 µM: read-out: % of Inhibition at 100 μM
[4] = target: recombinant light chain A (rLCA) (Clostridium botulinum, UniProt P0DPI0); test: biochemical; set-up: species or system C. botulinum
Sequence of recombinant light chain A (rLCA) (P0DPI0 2-448 limits assumed): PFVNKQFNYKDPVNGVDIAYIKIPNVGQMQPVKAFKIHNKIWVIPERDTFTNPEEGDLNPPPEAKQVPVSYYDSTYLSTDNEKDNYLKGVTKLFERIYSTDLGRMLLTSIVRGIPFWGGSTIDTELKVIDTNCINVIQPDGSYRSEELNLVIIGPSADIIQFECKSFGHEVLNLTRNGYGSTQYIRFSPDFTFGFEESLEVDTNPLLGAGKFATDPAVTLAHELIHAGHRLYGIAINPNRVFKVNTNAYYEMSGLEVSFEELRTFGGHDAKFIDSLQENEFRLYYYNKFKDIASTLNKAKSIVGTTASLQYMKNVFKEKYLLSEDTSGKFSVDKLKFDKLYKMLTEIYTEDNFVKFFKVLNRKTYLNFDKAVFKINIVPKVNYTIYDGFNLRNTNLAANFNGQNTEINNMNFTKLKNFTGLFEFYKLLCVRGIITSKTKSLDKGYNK

Sequence of BoNT/A (P0DPI0 whole entry, looked up): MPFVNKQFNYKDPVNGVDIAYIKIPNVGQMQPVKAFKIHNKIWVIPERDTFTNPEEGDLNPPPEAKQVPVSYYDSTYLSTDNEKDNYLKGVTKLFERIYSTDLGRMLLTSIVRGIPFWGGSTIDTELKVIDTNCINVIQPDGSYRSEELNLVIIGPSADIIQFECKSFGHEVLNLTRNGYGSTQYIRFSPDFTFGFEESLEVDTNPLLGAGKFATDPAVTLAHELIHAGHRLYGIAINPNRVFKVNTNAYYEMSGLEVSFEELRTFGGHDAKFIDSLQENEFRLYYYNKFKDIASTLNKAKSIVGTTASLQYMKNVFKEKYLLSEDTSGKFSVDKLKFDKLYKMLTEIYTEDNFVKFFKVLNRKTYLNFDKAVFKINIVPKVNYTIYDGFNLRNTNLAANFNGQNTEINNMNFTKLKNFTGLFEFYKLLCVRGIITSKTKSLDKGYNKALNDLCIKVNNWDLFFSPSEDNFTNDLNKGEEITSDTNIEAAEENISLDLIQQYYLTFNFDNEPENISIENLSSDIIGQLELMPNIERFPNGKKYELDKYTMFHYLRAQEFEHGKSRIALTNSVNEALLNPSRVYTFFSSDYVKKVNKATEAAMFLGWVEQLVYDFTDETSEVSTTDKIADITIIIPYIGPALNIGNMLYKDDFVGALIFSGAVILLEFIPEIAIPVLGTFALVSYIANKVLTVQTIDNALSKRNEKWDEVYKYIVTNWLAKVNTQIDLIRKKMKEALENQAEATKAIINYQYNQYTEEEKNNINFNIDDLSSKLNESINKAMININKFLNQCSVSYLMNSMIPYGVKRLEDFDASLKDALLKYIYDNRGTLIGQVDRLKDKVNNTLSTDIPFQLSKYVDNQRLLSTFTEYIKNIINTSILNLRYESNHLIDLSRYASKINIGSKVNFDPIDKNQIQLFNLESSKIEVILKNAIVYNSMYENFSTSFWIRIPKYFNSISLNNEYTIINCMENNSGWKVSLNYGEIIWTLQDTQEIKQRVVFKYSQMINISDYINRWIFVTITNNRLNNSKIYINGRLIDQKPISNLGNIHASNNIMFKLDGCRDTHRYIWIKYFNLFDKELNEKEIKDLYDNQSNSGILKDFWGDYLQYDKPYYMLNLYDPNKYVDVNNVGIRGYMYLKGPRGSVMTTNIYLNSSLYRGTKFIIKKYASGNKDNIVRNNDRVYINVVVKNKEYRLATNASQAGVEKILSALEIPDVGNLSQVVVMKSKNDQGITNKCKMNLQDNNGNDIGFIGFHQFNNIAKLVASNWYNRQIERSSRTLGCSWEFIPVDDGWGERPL
Sequence of BoNT/A LC (P0DPI0 2-448 limits assumed): as the sequence (P0DPI0 2-448 limits assumed) above
Sequence of LC of BoNT/A (P0DPI0 2-448 limits assumed): as above

Row | SMILES | inhibition of SNAP-25 cleavage by BoNT/A in M17 cells [1] | inhibition of endogenous SNAP-25 cleavage in M-17-TR2 cells [1] | Vmax [2] | type of inhibition [2] | α [2] | α′ [2] | Ki ([2]; Ki value) | IC50 [3] | concentration at which near 100% inhibition (saturation) is reached [3] | inhibition at 100 µM [3] | IC50 [4]
1 | O=c1ccc2cc3c(-c4ccc([N+](=O)[O-])cc4)coc3cc2o1 [Compound 1, 3-(4-nitrophenyl)-7H-furo[3,2-g][1]benzopyran-7-one] | showed inhibition | significantly inhibit | 2.064 RFU/s and 2.79 RFU/s and 2.55 RFU/s | non-competitive inhibition | 2.76 (±1.12) and 1.38 (±0.33) and 1.8 (±0.30) | 1.705 (±0.79) and 1.155 (±0.18) and 1.24 (±0.12) | 14.2 µM and 17.5 µM and 14.7 µM | 6.5 µM | about 81 μM | 100% | 10 µM
2 | O=c1oc2c(O)c(O)cc3c(=O)oc4c(O)c(O)cc1c4c23 [Compound 2, 2,3,7,8-Tetrahydroxy-chromeno[5,4,3-cde]chromene-5,10-dione] | – | – | – | – | – | – | – | 0.65 ± 0.032 µM | – | 101% | 1.62 µM
3 | O=C1C=C2CC3(O)COc4c(ccc(O)c4O)C3=C2C=C1O (stereo not drawn) [Compound 3, 3,4,6a, 10-Tetrahydroxy-6,7-dihydroindeno[2,1-c]chromen-9-one] | – | significantly inhibit | – | – | – | – | – | 2.97 ± 0.048 µM | – | 92.7% | 0.86 µM
4 | Cc1cc2c(C(C)C)c(O)c(O)c(C=O)c2c(O)c1-c1c(C)cc2c(C(C)C)c(O)c(O)c(C=O)c2c1O [Compound 4, 2, 2′-Bis(formyl-1,6,7-trihydroxy-5-isopropyl-3-methylnaphthalene)] | – | – | – | – | – | – | – | 3.15 ± 0.043 µM | – | 100% | 11.4 µM
5 | CCCCCCCCCCCC1=C(O)C(=O)C=C(O)C1=O [Compound 5, 2,5-dihydroxy-3-undecylcyclohexa-2,5-diene-1,4-dione] | – | – | – | – | – | – | – | 4.5 ± 0.035 µM | – | 100% | 13.5 µM
6 | O=C1c2ccccc2C(=O)c2c(O)c(O)cc(O)c21 [Compound 6, 1,2,4-trihydroxyanthracene-9,10-dione] | – | significantly inhibit | – | – | – | – | – | 4.5 ± 0.0091 µM | – | 100% | 11.6 µM
7 | O=C(O)CCCCC1CCSS1 (stereo not drawn) [Compound 7, 5-(1,2-Dithiolan-3-yl)-pentanoic acid] | – | – | – | – | – | – | – | 5.06 ± 0.055 µM | – | 90.5% | > 20 µM
8 | Cc1c(C(=O)O)c(O)cc2c1C(=O)c1c(O)c([C@@H]3O[C@H](CO)[C@@H](O)[C@H](O)[C@H]3O)c(O)c(O)c1C2=O [Compound 8, carminic acid] | – | – | – | – | – | – | – | 6.8 ± 0.035 µM | – | 85.1% | > 20 µM
9 | O=c1oc2c3c4c(cc2c2c1CCC2)CCCN4CCC3 [Compound 9, 2,3,6,7,10,11-Hexahydro-1H,5H-cyclopenta[3,4][1]benzopyrano[6,7,8-ij]quinolizin-12(9H)-one] | – | significantly inhibit | – | – | – | – | – | 9.3 ± 1.59 µM | – | 83.3% | > 20 µM
10 | O=c1c(O)c(-c2ccc(O)c(O)c2)oc2c(O)c(O)cc(O)c12 [Compound 10, 2-(3,4-dihydroxyphenyl)-3,5,7,8-tetrahydroxychromen-4-one] | – | significantly inhibit | – | – | – | – | – | 0.27 ± 0.0049 µM | – | 104% | 0.239 µM
